Experimental data reported in patent US20140357512A1, “HISTONE DEACETYLASE (HDAC) BIOMARKERS IN MULTIPLE MYELOMA” (priority 2013, published 2014).

System: human myeloma cell line MM.1S
Assay: SILAC acetylated-lysine peptide profiling, HDAC inhibitor vs DMSO (light/heavy ratio)
Type: cell-based
Text: An embodiment of the invention comprises utilizing the SILAC method in order to quantitate changes in protein expression between two or more populations of cells. The SILAC method is a technique based on mass spectrometry that detects differences in protein abundance among samples using non-radioactive isotopic labeling. The SILAC method is known in the art, and described in detail in Ong et al., “Stable Isotope Labeling by Amino Acids in Cell Culture, SILAC, as a Simple and Accurate Approach to Expression Proteomics”, Molecular & Cellular Proteomics, vol. 1, pp. 376-386 (2002), which is incorporated herein by reference in its entirety.
Briefly, the SILAC method involves growing two populations of cells in cell culture. The first population of cells is grown in growth media containing normal amino acids (“normal media”). The second population of cells is grown in media lacking a standard essential amino acid (such as lysine), but is then supplemented with a non-radioactive, isotopically labeled form of that essential amino acid (such as lysine labeled with ^13C atoms, rather than normal ^12C atoms), which is called “heavy media”. When the two populations of cells are each growing in the medium, they incorporate the amino acids into all of their proteins. The growth of cells maintained in the heavy media is no different from that in normal media. All peptides containing the heavy amino acids are heavier than their normal counterparts. The cells from each of the two populations of cells are lysed. The lysates from each of the two cell populations are then combined. The combined cell lysates are then analyzed by mass spectrometry. Pairs of chemically identical peptides of different stable isotope composition can be differentiated in a mass spectrometer due to their difference in mass. The ratio of peak intensities in the mass spectrum for such peptide pairs reflects the abundance ratio for the two proteins.
This example describes SILAC studies that were performed to compare the effects of three different HDAC inhibitors (Compound A, Compound B, and tubastatin A) to a control on a human multiple myeloma cell line. The HDAC inhibitors were also compared amongst themselves to determine differences in their effects.
A human myeloma cell line MM.1S was grown using either ^12C (light) or ^13C (heavy) lysine containing culture medium. The “heavy” cells were treated with DMSO as the control, and the “light” cells were treated with a single HDAC inhibitor at 37° C. for 6 hours. The heavy and light cells were lysed, and the lysates were mixed in 1:1 ratio and digested with the protease trypsin. The acetylated lysine containing peptides (due to the action of the HDAC inhibitor) in the digested peptide pool were captured by a non-specific anti-acetylated lysine antibody cocktail (the antibodies identify both light and heavy acetylated peptides), and subjected to mass spectrometry analysis in order to identify thousands of individual peptides.
Thousands of peptides were identified in pairs (^12C and ^13C) due to their known mass differences. The amino acid sequence and quantitative ratio (Light/Heavy) of a given peptide in two differentially treated cell lysates were then determined and annotated with their possible protein (gene) sources.
As stated above, three HDAC inhibitors (Compound A, Compound B, and Tubastatin A) were used. Thus, the SILAC method was performed three times, with a different HDAC inhibitor compared to a control each time. Accordingly, there are three pairs of quantitative data in the table below, i.e., Compound A:DMSO, Compound B:DMSO, and Tubastatin A:DMSO. A cut-off of 1.30 fold of change (increase or decrease) was then used to determine “changed” or “+” in the table, and any peptides with a fold of change less than 1.3 fold were determined to be “unchanged” or “0” in the table. Those peptides that were not identified were marked as “NA” in the table. […]

O=C(NO)c1cnc(NC2(c3cccc(F)c3)CCCCC2)nc1 [Compound B, 2-((1-(3-fluorophenyl)cyclohexyl)amino)-N-hydroxypyrimidine-5-carboxamide]
light to heavy ratio (L/H ratio), log 2 scale, acetylated peptide VGDK(ac)[…] (SEQ ID NO: 773) (10 kDa heat shock protein mitochondrial [70], gene HSPE1, drug:DMSO): 0.00 | light to heavy ratio (L/H ratio) of acetylated peptide IQEVLK(ac)HAR (SEQ ID NO: 264) (39S ribosomal protein L20 mitochondrial [26], MRPL20, drug:DMSO): 0.00 log 2 | light to heavy ratio (L/H ratio) of acetylated peptide KDVHMPK(ac)HPELADK (SEQ ID NO: 353) (40S ribosomal protein S10 [31], RPS10, drug:DMSO): 0.56 log 2 | light to heavy ratio (L/H ratio) of acetylated peptide NK(ac)[…] (SEQ ID NO: 559) (40S ribosomal protein S17 [49], gene RPS17, RPS17L, inhibitor:DMSO): 0.00 log 2 | light to heavy ratio (L/H ratio) of acetylated peptide IDK(ac)PILK (SEQ ID NO: 506) (60S ribosomal protein L8 [177], gene RPL8, inhibitor:DMSO): 0.00 log 2 | light to heavy ratio (L/H ratio) of acetylated peptide GPLDK(ac)WR (SEQ ID NO: 622) (60S ribosomal protein L10-like [208], gene RPL10L, inhibitor:DMSO): 0.00 log 2 | light to heavy ratio (L/H ratio), log 2 scale, acetylated peptide YMVK(ac)SCGK (SEQ ID NO: 811) (60S ribosomal protein L10 [78], gene SNORA70, RPL10, drug:DMSO): 0.00 | light to heavy ratio (L/H ratio), log 2 scale, acetylated peptide VDEVK(ac)STIK (SEQ ID NO: 805) (60S ribosomal protein L10a [152], gene RPL10A, drug:DMSO): 0.00 | light to heavy ratio (L/H ratio) of acetylated peptide VITEEEK(ac)NFK (SEQ ID NO: 522) (60S ribosomal protein L13 [174], gene RPL13, inhibitor:DMSO): 0.00 log 2 | light to heavy ratio (L/H ratio) of acetylated peptide K(ac)FAYLGR (SEQ ID NO: 614) (60S ribosomal protein L13a [134], gene SNORD32A, RPL13A, SNORD33, SNORD34, inhibitor:DMSO): 0.00 log 2 | light to heavy ratio (L/H ratio), log 2 scale, acetylated peptide LAHEVGWK(ac)[…] (SEQ ID NO: 812) (60S ribosomal protein L13a [148], gene SNORD32A, RPL13A, SNORD33, SNORD34, drug:DMSO): 0.00 | light to heavy ratio (L/H ratio) of acetylated peptide GHK(ac)FHHTIGGSR (SEQ ID NO: 519) (60S ribosomal protein L15 [179], gene RPL15, inhibitor:DMSO): 0.00 log 2 | light to heavy ratio (L/H ratio), log 2 scale, acetylated peptide SFVK(ac)[…] (SEQ ID NO: 770) (60S ribosomal protein L27 [73], gene RPL27, drug:DMSO): 0.00 | light to heavy ratio (L/H ratio), log 2 scale, acetylated peptide YSVDIPLDK(ac)TVVNK (SEQ ID NO: 807) (60S ribosomal protein L27 [93], gene RPL27, drug:DMSO): 0.00 | light to heavy ratio (L/H ratio) of acetylated peptide NCSSFLIK(ac)R (SEQ ID NO: 558) (60S ribosomal protein L28 [19], gene RPL28, inhibitor:DMSO): 0.00 log 2 | light to heavy ratio (L/H ratio) of acetylated peptide IHGVGFK(ac)K (SEQ ID NO: 542) (60S ribosomal protein L31 [39], gene RPL31, inhibitor:DMSO): 0.00 log 2 | light to heavy ratio (L/H ratio), log 2 scale, acetylated peptide LNK(ac)AVWAK (SEQ ID NO: 808) (60S ribosomal protein L31 [70], gene RPL31, drug:DMSO): 0.00 | light to heavy ratio (L/H ratio) of acetylated peptide LWSK(ac)AIFAGYK (SEQ ID NO: 538) (60S ribosomal protein L35a [8], gene RPL35A, inhibitor:DMSO): 0.00 log 2 | light to heavy ratio (L/H ratio) of acetylated peptide KIEISQHAK(ac)YTCSFCGK (SEQ ID NO: 351) (60S ribosomal protein L37a [36], RPL37A, drug:DMSO): 0.41 log 2 | light to heavy ratio (L/H ratio) of acetylated peptide VMEHFIK(ac)LYK (SEQ ID NO: 276) (78 kDa glucose-regulated protein [268], HSPA5, drug:DMSO): 0.00 log 2 | light to heavy ratio (L/H ratio) of acetylated peptide AK(ac)[…] (SEQ ID NO: 266) (78 kDa glucose-regulated protein [326], HSPA5, drug:DMSO): 0.00 log 2 | light to heavy ratio (L/H ratio) of acetylated peptide FK(ac)[…] (SEQ ID NO: 333) (116 kDa U5 small nuclear ribonucleoprotein component [790], EFTUD2, drug:DMSO): −0.99 log 2 | L/H ratio of acetylated peptide ((ac)AQLGK(ac)LLK (SEQ ID NO: 421), NEDD8-activating enzyme E1 regulatory subunit [6], NAE1): 0.70 log 2 | L/H ratio of acetylated peptide ((ac)MEDYTK(ac)IEK (SEQ ID NO: 374), Isoform 2 of Cyclin-dependent kinase 1 [6], CDK1): −0.51 log 2 | light to heavy ratio (L/H ratio) of acetylated peptide, log 2 scale ((ac)SIGVPIK(ac)[…] (SEQ ID NO: 224), Small nuclear ribonucleoprotein Sm D3 [8], SNRPD3): 0.00 | L/H ratio of acetylated peptide ((ac)SNMEK(ac)HLFNLK (SEQ ID NO: 376), Charged multivesicular body protein 1b [6], CHMP1B): 0.85 log 2 | L/H ratio of acetylated peptide ((ac)SSNECFK(ac)CGR (SEQ ID NO: 379), Isoform 1 of Cellular nucleic acid-binding protein [8], CNBP): −0.82 log 2 | light to heavy ratio (L/H ratio) of acetylated peptide, log 2 scale ((ac)SVFGK(ac)LFGAGGGK (SEQ ID NO: 143), Charged multivesicular body protein 4b [6], CHMP4B): 0.00 | L/H ratio of acetylated peptide ((ac)[…](ac)DLK (SEQ ID NO: 437), Isoform 2 of Prothymosin alpha [15], PTMA, MIR1244-3, MIR1244-2, MIR1244-1): 0.61 log 2 | L/H ratio of acetylated peptide ((ac)[…](ac)SAR (SEQ ID NO: 464), Voltage-dependent anion-selective channel protein 1 [12], VDAC1): −0.78 log 2 | L/H ratio of acetylated peptide (ACK(ac)LAIR (SEQ ID NO: 463), Transitional endoplasmic reticulum ATPase [696], VCP): −0.58 log 2 | L/H ratio of acetylated peptide NLQK(ac)EVIHR (SEQ ID NO: 125) (ACOX1 [504], log 2 scale, drug vs DMSO): 0.00
